For one data set, the system named is Human fibroblasts BJ. Kind of data set: Long-term cultivation of BJ fibroblasts, cell count (Example 9). The data set is classed as cell-based. To be noted: 12.5-100 µM, 12th day, FIG. 8. How it is done: Human fibroblasts BJ were maintained in standard cultivation medium DMEM with 10% fetal bovine serum. The experiment was performed in 24-well plates. 10,000 cells in DMEM medium with 10% fetal bovine serum were seeded into the wells. The test compound was added to a final concentration in the range of 12.5-100 µM after 24 hours. DMSO vehicle was used as a negative control. In order to obtained better idea of test variability, 8 control wells were used (columns A and D). The cultivation medium containing either test compound or DMSO was replaced twice a week. The cells were trypsinized on the 12th day and counted on Coulter Z2 apparatus.

Data set [1] relates to explanted suprachiasmatic nuclei (SCN) of mPer2Luc mice. The data set can be described thus: PER2::Luc rhythm in organotypic SCN explants (Example 3). In kind it is cell-based, mouse. How it is done:
amplitude of circadian expression of the PER2::Luc clock reporter in the explanted suprachiasmatic nuclei (SCN) of the hypothalamus, the central clock of mammals, of the transgenic mouse line Male and female mPer2Luc mice (strain B6.129S6-Per2tm1Jt/J, JAX, USA) (Yoo et al., 2004) were maintained in a light/dark cycle with 12 hours of light and 12 hours of darkness (LD12: 12), killed between 12:00 and 15:00, i.e. 6-9 hours after turning on the lights, by rapid cervical dislocation under isoflurane anesthesia, their brains were removed and 250 μm thick SCN slices in ice-cold HBSS medium were prepared using a vibratome (Leica, Wetzlar, Germany). Two explants containing SCN from each brain were prepared. Individual SCN explants were then placed on Millicell Culture Inserts (Merck, Darmstadt, Germany) inside 35 mm Petri dishes with test compound or DMSO vehicle in 1 ml air-buffered recording medium supplemented with 100 U/ml penicillin, 100 μg/ml streptomycin (Sigma-Aldrich, St. Luis, MO, USA), 1×GlutaMAX (ThermoFisher, Waltham, MA, USA), 5% fetal calf serum (Sigma) and 0.1 mM Luciferin-EF (Promega Madison, WI, USA). The dishes were sealed with vacuum Vaseline and glass coverslips and placed inside a LumiCycle (Actimetrics) for bioluminescence recording. Rhythm analysis was performed in Lumicycle Analysis software (Actimetrics).

The test system of data set [2] is Bmal1 gene expression (mBmal1-Luc reporter). The data set can be described thus: mBmal1-Luc reporter expression in U2OS cells (Example 4). The data set is classed as cell-based, human. As to conditions: first 5-15 hours after application, FIG. 4. How it is done:
Human osteosarcoma U2OS cells were grown in standard DMEM with 10% fetal calf serum. U2OS cells were transduced with lentiviral particles containing the reporter pLV6-Bmal1-Luc (S. Brown, Addgene plasmid #68833) and selected under Blasticidin. The cell line was clonally expanded and a single monoclonal cell line was used for further experiments. Cells were cultured in a 384-well plate in growth medium to 90+% confluence. Test compound or vehicle (DMSO) was applied to recording medium with 100 U/ml penicillin, 100 μg/ml streptomycin, 1×GlutaMAX (ThermoFisher, Waltham, MA, USA), 10% fetal calf serum (Sigma) and 0.1 mM Luciferin-EF (Promega Madison, WI, USA). Luminescence was recorded every hour for additional 144 hours in Luminoskan Ascent (ThermoFisher).

The test system of data set [3] is Per2 gene expression (mPer2-Luc reporter). Kind of data set: mPer2-Luc reporter expression in NIH3T3 cells (Example 5). As to conditions: NIH3T3, first 1-12 hours after application, FIG. 5. In kind it is cell-based, mouse. As for the experimental part:
Mouse embryonic fibroblasts NIH3T3 cells were grown in standard DMEM with 10% fetal calf serum. NIH3T3 cells were transfected with 1 μg of Per2-Luc reporter (Meng, 2009) using GeneJuice (Novagen) and selected under hygromycin. The cell line was clonally expanded and a single monoclonal cell line was used for further experiments. Cells were cultured in a 96-well plate in growth medium to 90+% confluence. Test compound or vehicle (DMSO) was applied to recording medium with 100 U/ml penicillin, 100 μg/ml streptomycin, 1×GlutaMAX (ThermoFisher, Waltham, MA, USA), 10% fetal calf serum (Sigma) and 0.1 mM Luciferin-EF (Promega Madison, WI, USA). Luminescence was recorded every hour for additional 144 hours in Luminoskan Ascent (ThermoFisher).

The format of data set [4] is in vitro ADME. To be noted: human, 2 μM. How it is done: This system is further referred to as RF-MS. Preparation of the lyophilized samples for the analysis is described in the sections dedicated to the individual methods. Lyophilized samples were dissolved in the mobile phase (95% water, 5% acetonitrile, 0.1% formic acid) with respective internal standards. The dissolved samples were aspired directly from 96-well plates into a 10 μL sample loop and passed through a C4 cartridge (Agilent Technologies) with solvent A (95% water, 0.01% formic acid, 5% acetonitrile) at a flow rate of 1.5 mL/minute for 3 seconds. After the desalting step, the analyte retained on the cartridge was eluted with solvent B (95% acetonitrile, 5% 0.01% formic acid) to the mass spectrometer at a flow rate of 0.4 mL/minute for 7 seconds. Mass spectrometry was carried out using electrospray ionization in the positive ion mode. Daughter ion peaks were identified using a multiple-reaction monitoring protocol.
Test compound (a final concentration of 2 μM) was incubated with human plasma (Transfusion Department, University Hospital Olomouc, Olomouc, Czech Republic) for 0, 15, 30, 60 and 120 min at 37° C. The reactions were stopped by addition of acetonitrile-methanol mixture (2:1). Samples were stored at −80° C. overnight and centrifuged (2811×g, 6 min, 4° C.). Supernatants were lyophilized.

Data set [5] deals with NIH3T3 cells with mPer2-Luc reporter. The data set can be described thus: Circadian rhythm period and amplitude, NIH3T3 cells with Per2-Luc reporter (Example 2). The data set is classed as cell-based, mouse. How it is done: Mouse embryonic fibroblasts NIH3T3 cells were grown in standard DMEM with 10% fetal calf serum. NIH3T3 cells were transfected with 1 μg of Per2-Luc reporter (Meng, 2009) using GeneJuice (Novagen) and selected under hygromycin. The cell line was clonally expanded and a single monoclonal cell line was used for further experiments. Cells were cultured in a 96-well plate in growth medium to 90+% confluence. Test compound or vehicle (DMSO) was applied to recording medium with 100 U/ml penicillin, 100 μg/ml streptomycin, 1×GlutaMAX (ThermoFisher, Waltham, MA, USA), 10% fetal calf serum (Sigma) and 0.1 mM Luciferin-EF (Promega Madison, WI, USA). Luminescence was recorded every hour for an additional 144 hours in a Luminoskan Ascent (ThermoFisher). Circadian rhythm analysis was performed using cosinor analysis. […] The concentration and level of other proteins, whose rhythmic expression is controlled by an oscillator in the brain and peripheral tissues (so-called clock-controlled genes), is also necessarily affected.

On to `c1coc(CNc2ncnc3nc[nH]c23)c1` [N-(furan-2-ylmethyl)-7H-purin-6-amine], for which, in the data set with Human fibroblasts BJ, the “cell growth (cell count)” value is reported as “did not have a negative effect on cell growth”. Moreover, the circadian rhythm period result in data set [1] (FIG. 3B) is given as “prolongs the circadian rhythm period”; in data set [5] (NIH3T3 mPer2-Luc, luminescence 144 hours, cosinor analysis, FIG. 2), “prolongs the circadian rhythm period”. For the same molecule, the amplitude entry in data set [1] (FIG. 3C) is on record as “modulates the amplitude”. Besides, the Bmal1 gene expression entry in data set [2] was “affects Bmal1 gene expression”. Besides, in data set [3], the Per2 gene expression result is listed as “regulates Per2 gene expression”. Moreover, the “Plasma stability (120 min) [% intact]” value in data set [4] stood at 91 % intact. Also, the “amplitude of circadian expression of mPer2-Luc” value in data set [5] (NIH3T3, FIG. 2) was “modulates the amplitude”.

For the origin of these results see patent US12558358B2 (UNIVERZITA PALACKEHO V OLOMOUCI, priority 2019, dated 2026).
